Measured values published in US20080153701A1, “Fungicidal Mixtures” (BASF Aktiengesellschaft, priority 2004, published 2008).
Where two headings read alike, the source gives them in different places.

Columns and labels:
Phytophthora infestans = assay type: cell-based; conditions: microtiter plate, 405 nm, day 7
Botrytis cinerea [1] = assay: Activity against the gray mold pathogen Botrytis cinerea in the microtiter test; assay type: cell-based; conditions: microtiter plate, day 7
Puccinia recondite = assay: Curative activity against brown rust of wheat (greenhouse); assay type: in vivo; conditions: wheat seedlings, sprayed 1 day after inoculation, rated after 7 days
Procedure: (§1) The active compounds were separately or jointly prepared as a stock solution comprising 25 mg of active compound which was made up to 10 ml using a mixture of acetone and/or DMSO and the emulsifier Uniperol® EL (wetting agent having emulsifying and dispersing action based on ethoxylated alkylphenols) in a volume ratio of solvent/emulsifier of 99 to 1. The mixture was then made up with water to 100 ml. This stock solution was diluted with the solvent/emulsifier/water mixture described to the concentration of active compounds stated below.
(§2) The visually determined percentages of infected leaf areas were converted into efficacies in % of the untreated control:
(§3) The efficacy (E) is calculated as follows using Abbot's formula: […]
(§4) α corresponds to the fungal infection of the treated plants in % and β corresponds to the fungal infection of the untreated (control) plants in %
(§5) An efficacy of 0 means that the infection level of the treated plants corresponds to that of the untreated control plants; an efficacy of 100 means that the treated plants were not infected.
(§6) The expected efficacies of combinations of active compounds were determined using Colby's formula (Colby, S. R. “Calculating synergistic and antagonistic responses of herbicide combinations”, Weeds, 15, 20-22, 1967) and compared with the observed efficacies.
(§7) E=x+y−x·y/100 • E expected efficacy, expressed in % of the untreated control, when using the mixture of the active compounds A and B at the concentrations a and b • x efficacy, expressed in % of the untreated control, when using the active compound A at the concentration a • y efficacy, expressed in % of the untreated control, when using the active compound B at the concentration b
Leaves of wheat seedlings of the cultivar “Kanzler” cultivated in pots were inoculated with a spore suspension of brown rust (Puccinia recondite). The pots were then placed in a chamber with high atmospheric humidity (90 to 95%) and at 20 to 22° C. for 24 hours. During this time, the spores germinated and the germ tubes penetrated into leaf tissue. The next day, the infected plants were sprayed to runoff point with the solution of active compound described above having the active compound concentration stated below. After the spray coating had dried on, the test plants were cultivated in a greenhouse at temperatures between 20 and 22° C. and at 65 to 70% relative atmospheric humidity for 7 days. The extent of the rust fungus development on the leaves was then determined.

Botrytis cinerea [2] = assay: Activity against Botrytis cinerea on bell peppers (greenhouse, protective spray); assay type: in vivo; conditions: bell pepper seedlings, sprayed 1 day before inoculation, rated after 5 days
Procedure: as §1, §2, §3, §4, §5, §6, §7
Bell pepper seedlings of the cultivar “Neusiedler Ideal Elite” were, after 2-3 leaves were well developed, sprayed to runoff point with an aqueous suspension in the active compound concentration stated below. […] After 5 days, the extent of the fungal infection on the leaves could be determined visually in %.

Fc1ccc([C@]2(Cn3cncn3)O[C@H]2c2ccccc2Cl)cc1 (racemic) [epoxiconazole, (2RS, 3SR)-1-[3-(2-chlorophenyl)-2,3-epoxy-2-(4-fluorophenyl)propyl]-1H-1,2,4-triazole]
Observed activity (Phytophthora infestans; 32 ppm): 9%
Observed activity (Phytophthora infestans; 125 ppm): 31%
Observed activity (Botrytis cinerea [1]; 1 ppm, 405 nm): 2%

COCC(=O)N(c1c(C)cccc1C)C(C)C(=O)OC (racemic) [metalaxyl, methyl N-(methoxyacetyl)-N-(2,6-xylyl)-DL-alaninate]
Observed activity (Puccinia recondite; 16 ppm): 0%

COC(=O)NCc1cc(/C(C)=N/OCc2cccc(C)c2)ccc1Cl [I-B]
Observed activity (Puccinia recondite; 16 ppm): 6%
Observed activity (Phytophthora infestans; 0.25 ppm): 4%
Observed activity (Phytophthora infestans; 4 ppm): 5%
Observed activity (Phytophthora infestans; 8 ppm): 27%
Observed activity (Phytophthora infestans; 32 ppm): 35%
Observed activity (Phytophthora infestans; 125 ppm): 57%
Observed activity (Botrytis cinerea [1]; 0.25 ppm, 405 nm): 2%
Observed activity (Botrytis cinerea [1]; 1 ppm, 405 nm): 40%
Observed activity (Botrytis cinerea [1]; 4 ppm, 405 nm): 67%
Observed activity (Botrytis cinerea [2]; 16 ppm): 10%
Observed activity (Botrytis cinerea [2]; 63 ppm): 20%

O=C(Nc1ccccc1-c1ccc(Cl)cc1)c1cccnc1Cl [boscalid, 2-chloro-N-(4′-chlorbiphenyl-2-yl)nicotinamide]
Observed activity (Puccinia recondite; 16 ppm): 0%

Cc1ccc(-c2c(Cl)nc(C#N)n2S(=O)(=O)N(C)C)cc1 [cyazofamid, 4-chloro-2-cyano-N,N-dimethyl-5-(4-methylphenyl)-1H-imidazole-1-sulfonamide]
Observed activity (Botrytis cinerea [1]; 1 ppm, 405 nm): 0%
Observed activity (Botrytis cinerea [1]; concentration not printed (second line for cyazofamid)): 0%

COc1ccc(C(=CC(=O)N2CCOCC2)c2ccc(Cl)cc2)cc1OC [dimethomorph, 3-(4-chlorophenyl)-3-(3,4-dimethoxyphenyl)-1-morpholin-4-ylpropenone]
Observed activity (Puccinia recondite; 2 ppm): 0%
Observed activity (Puccinia recondite; 8 ppm): 0%

N#Cc1sc2c(=O)c3ccccc3c(=O)c=2sc1C#N [dithianon, 5,10-dioxo-5,10-dihydronaphtho[2,3-b][1,4]dithiin-2,3-dicarbonitrile]
Observed activity (Botrytis cinerea [2]; 63 ppm): 10%

O=[N+]([O-])c1cc(C(F)(F)F)c(Cl)c([N+](=O)[O-])c1Nc1ncc(C(F)(F)F)cc1Cl [fluazinam, 3-chloro-N-[3-chloro-2,6-dinitro-4-(trifluoromethyl)phenyl]-5-(trifluoromethyl)-2-pyridinamine]
Observed activity (Phytophthora infestans; 1 ppm): 0%

CO/N=C(/C(=O)OC)c1ccccc1COc1ccccc1C [kresoxim-methyl, methyl(E)-methoxyimino[α-(o-tolyloxy)-o-tolyl]acetate]
Observed activity (Puccinia recondite; 4 ppm): 0%
Observed activity (Puccinia recondite; 63 ppm): 18%
Observed activity (Phytophthora infestans; 1 ppm): 36%

OC(Cc1ccccc1Cl)(Cn1nc[nH]c1=S)C1(Cl)CC1 (centres unmarked) [prothioconazole, 2-[2-(1-chlorocyclopropyl)-3-(2-chlorophenyl)-2-hydroxypropyl]-2,4-dihydro[1,2,4]triazol-3-thione]
Observed activity (Phytophthora infestans; 8 ppm): 0%
Observed activity (Phytophthora infestans; 32 ppm): 46%

COC(=O)N(OC)c1ccccc1COc1ccn(-c2ccc(Cl)cc2)n1 [pyraclostrobin, methyl N-{2-[1-(4-chlorophenyl)-1H-pyrazol-3-yloxymethyl]phenyl}(N-methoxy)carbamate]
Observed activity (Botrytis cinerea [1]; 0.25 ppm, 405 nm): 20%

manganese-ethylenebis(dithiocarbamate) zinc complex [mancozeb]
Observed activity (Botrytis cinerea [1]; 4 ppm, 405 nm): 9%
